Measurements reported in ChEMBL document CHEMBL1149938, “New 7-aryl analogues of anthracyclines: Synthesis and cytotoxic activity of ()-7-(3,4,5-trimethoxyphenyl)-7-deoxyidarubicinone” (Bioorg Med Chem Lett, 1997).

Experiments:
Type in all cases: functional, cell-based
[1] = test system: A549; assay: Compound was evaluated for the cytotoxicity against A-549 tumor cell line after 3 days of incubation; conditions: Homo sapiens, A549, 72 h
[2] = test system: HT-29; assay: Compound was evaluated for the cytotoxicity against HT-29 tumor cell line after 3 days of incubation; conditions: Homo sapiens, HT-29, 72 h
[3] = test system: P388; assay: Compound was evaluated for the cytotoxicity against P-388 tumor cell line after 3 days of incubation; conditions: Mus musculus, P388, 72 h
[4] = test system: SK-MEL-28; assay: Compound was evaluated for the cytotoxicity against MEL-28 tumor cell line after 3 days of incubation; conditions: Homo sapiens, SK-MEL-28, 72 h

| Compound | IC50 [1] [µM] | IC50 [2] [µM] | IC50 [3] [µM] | IC50 [4] [µM] |
| --- | --- | --- | --- | --- |
| C#C[C@@]1(O)C[C@H](c2cc(OC)c(OC)c(OC)c2)[C@@H]2C(=O)c3c(c(O)c4ccccc4c3O)C(=O)[C@@H]2C1 | 0.5 | 0.5 | 0.5 | 0.5 |
| COc1cc([C@H]2CC(=O)C[C@H]3C(=O)c4c(c(O)c5ccccc5c4O)C(=O)[C@@H]23)cc(OC)c1OC | 5 | 5 | 5 | 5 |
| C#C[C@]1(O)Cc2c(O)c3c(c(O)c2[C@@H](c2cc(OC)c(OC)c(OC)c2)C1)C(=O)c1ccccc1C3=O | > 10 | > 10 | > 10 | > 10 |
| COc1cc([C@H]2C[C@](O)(C(C)=O)Cc3c(O)c4c(c(O)c32)C(=O)c2ccccc2C4=O)cc(OC)c1OC | > 10 | > 10 | > 10 | > 10 |
| COc1cc([C@H]2C[C@](O)(C(C)=O)C[C@H]3C(=O)c4c(c(O)c5ccccc5c4O)C(=O)[C@@H]23)cc(OC)c1OC | 5 | 5 | 5 | 5 |
| COc1cccc2c1C(=O)c1c(O)c3c(c(O)c1C2=O)C[C@@](O)(C(=O)CO)C[C@@H]3O[C@H]1C[C@H](N)[C@H](O)[C@H](C)O1 [DOXORUBICIN] | 0.02 | 0.02 | 0.02 | 0.02 |
